Source: patent publication US7482486B2, “Methods for the preparation and formulation of magnesium valproate hydrate” (BioLink Life Sciences, Inc., priority 2005, dated 2009)

Columns and labels:
deacetylase = settings: dose between 20 and 40 mg/kg; patients with cervical cancer; cited from earlier work
[1] = in comparison with sodium valproate or valproic acid; cited from earlier work
[2] = background statement; cited from earlier work
[3] = cited from earlier work
epileptic patients = assay: Open, comparative clinical trial in epileptic patients versus sodium valproate; settings: expected
Excerpt: The therapeutic benefit of magnesium valproate hydrate of the present invention is compared with that of sodium valproate in an open, comparative clinical trial in epileptic patients. […] Then treatment is substituted with magnesium valproate hydrate (alone or combined with other drugs) for 3 months.

[4] = Hygroscopicity / deliquescence of the solid; assay type: physicochemical; settings: isolated solid
[5] = Stability of the solid during storage; assay type: physicochemical; settings: ambient conditions where stated, hydrate
[6] = after 3 months of magnesium valproate hydrate, substituted for sodium valproate

For “2-propylpentanoic acid magnesium salt [magnesium valproate]”, the “deacetylase activity and histone acetylation in tumor tissues” value (deacetylase) is given as “inhibits deacetylase activity and hyperacetylates histones” and the absorption rate [1] is given as “slower and more regular absorption rate”.
In the case of `CCCC(CCC)C(=O)[O-].[Na+]` [Sodium valproate], the hygroscopicity [2] is listed as “hygroscopic”.
In the case of `CCCC(CCC)C(=O)O` [Valproic acid, 2-propylpentanoic acid], the solubility in water [3] is given as “very slightly soluble in water”.
In the case of `CCCC(CCC)C(=O)O` [divalproex sodium], the hygroscopicity [2] is listed as “not hygroscopic”.
In the case of magnesium valproate hydrate, the “number of patients with no convulsions or only occasional convulsions” value (epileptic patients; [6]) is reported as “increase significantly”, the “percentage of patients without convulsions” value (epileptic patients; [6]) is reported as “increase significantly” and the “side effects (e.g., gastric discomfort or ulceration, malaise)” value (epileptic patients; versus sodium valproate) is reported as “fewer side effects”. The hygroscopicity / deliquescence [4] was “not hygroscopic or deliquescent” and the stability during storage [5] was “stable during storage under ambient conditions”.
